For orientation: EC50 means the concentration that produces a half-maximal response. A lower EC50 goes with an effect from little substance. Broadly, the IC50 is the concentration that inhibits the measured activity by half.

Experiment [1] has as its system Plasmodium falciparum. Briefly: Antiplasmodial activity against Plasmodium falciparum 3D7 after 72 hrs by SYBR green assay. The format is functional, organism-based. The following applies: 3D7, 72 h.
A short description of experiment [2]: Inhibition of GST-fused Plasmodium falciparum recombinant CDPK1 expressed in Escherichia coli Rosetta 2 assessed as inhibition of [gamma-33P]ATP incorporation into substrate peptide by scintillation counting.
The subject of experiment [3] is Plasmodium falciparum. Kind of experiment: Antiplasmodial activity against Plasmodium falciparum 3D7 by [3H]hypoxanthine incorporation assay. The settings on record: 3D7, 3 h.

In the case of `N[C@H]1CC[C@H](Nc2nc(Nc3ccc(C(=O)N4CCCCC4)cc3)c3ncn(-c4cccc(OCc5ccccc5)c4)c3n2)CC1`, in the experiment with Plasmodium falciparum [1], a half-maximal response (EC50) required 312 nM. The IC50 in experiment [2] was 4040 nM.

In the experiment with Plasmodium falciparum [1], `N[C@H]1CC[C@H](Nc2nc(Nc3ccc(C(=O)N4CCCCC4)cc3)c3ncn(-c4ccc5c(c4)OCO5)c3n2)CC1` came in with an EC50 of 400 nM. The concentration for half-maximal inhibition (IC50) in experiment [2] worked out at 342 nM.

Take `N[C@H]1CC[C@H](Nc2nc(Nc3ccc(C(=O)N4CCCCC4)cc3)c3ncn(-c4cccc(C(=O)O)c4)c3n2)CC1`: the half-maximal effective concentration (EC50) with Plasmodium falciparum [1] is more than 10000 nM. In addition, the IC50 in experiment [2] was determined as 71 nM.

The compound `N[C@H]1CC[C@H](Nc2nc(Nc3ccc(C(=O)N4CCCCC4)cc3)c3ncn(-c4ccc(C(=O)O)cc4)c3n2)CC1` registered an EC50 in the experiment with Plasmodium falciparum [1] of more than 10000 nM. The IC50 in experiment [2] was 28 nM.

The compound `CCOc1ccc(-n2cnc3c(Nc4ccc(C(=O)N5CCCCC5)cc4)nc(N[C@H]4CC[C@H](N)CC4)nc32)cc1` yielded an EC50 in the experiment on Plasmodium falciparum [1] of 535 nM. Also, the IC50 in experiment [2] amounted to 240 nM.

Turning to `CC(C)(C)c1ccc(-n2cnc3c(Nc4ccc(C(=O)N5CCCCC5)cc4)nc(N[C@H]4CC[C@H](N)CC4)nc32)cc1`, the response with Plasmodium falciparum [1] was half-maximal at 596 nM (EC50). In addition, in experiment [2], the IC50 stood at 3490 nM.

Take `N[C@H]1CC[C@H](Nc2nc(Nc3ccc(CN4CCOCC4)cc3)c3ncn(-c4ccccc4)c3n2)CC1`: the midpoint of the response in the experiment with Plasmodium falciparum [1], the EC50, lay at 174 nM. Also, the half-maximal inhibitory concentration (IC50) in experiment [2] amounted to 703 nM.

Consider `CN1CCN(C(=O)c2cccc(Nc3nc(N[C@H]4CC[C@H](N)CC4)nc4c3ncn4-c3ccccc3)c2)CC1`, for which, in the experiment with Plasmodium falciparum [1], the EC50 came out at 1300 nM. The IC50 in experiment [2] stood at 6870 nM.

`O=C(c1ccc(Nc2nc(NCCCN3CCOCC3)nc3c2ncn3-c2ccccc2)cc1)N1CCCCC1` had an EC50 with Plasmodium falciparum [1] of 2990 nM. The half-inhibitory concentration (IC50) in experiment [2] is 430 nM.

Consider `O=C(c1ccc(Nc2nc(Nc3cnc4ccccc4c3)nc3c2ncn3-c2ccccc2)cc1)N1CCCCC1`, for which the half-maximal effective concentration (EC50) in the experiment with Plasmodium falciparum [1] is 101 nM. In addition, in experiment [2], the IC50 turned out to be 3850 nM.

Compound `O=C(c1ccc(Nc2nc(N[C@H]3CC[C@H](O)CC3)nc3c2ncn3-c2cccc(F)c2)cc1)N1CCCCC1` returned an EC50 with Plasmodium falciparum [1] of more than 10000 nM. Also, the IC50 in experiment [2] came out at 150 nM.

Take `O=C(c1ccc(Nc2nc(NCCc3c[nH]cn3)nc3c2ncn3-c2cccc(Cl)c2)cc1)N1CCCCC1`: the EC50 with Plasmodium falciparum [1] was determined as 352 nM. In addition, in experiment [2], the IC50 worked out at 626 nM.

As for `C[C@@H]1CC[C@H]2[C@@H](C)C(=O)O[C@@H]3O[C@@]4(C)CC[C@@H]1[C@]32OO4` [ARTEMISININ], the values for the EC50 in the experiment with Plasmodium falciparum [1] and in the experiment on Plasmodium falciparum [3] were 28 nM and less than 10 nM, respectively.

Turning to `CCN(CC)CCCC(C)Nc1ccnc2cc(Cl)ccc12` (configuration not stated) [CHLOROQUINE], the EC50 with Plasmodium falciparum [3] is less than 10 nM.

The record behind these values is ChEMBL document CHEMBL1212705, “Gene expression signatures and small-molecule compounds link a protein kinase to Plasmodium falciparum motility” (Nat Chem Biol, 2008).
